Data on 103 molecules can be found in PubChem BioAssay AID1648 (Sanford-Burnham Center for Chemical Genomics, 2009).

The term Kd denotes the concentration at which binding is half-saturated.

Activity calls are given as the source filed them. How the calls were made is not given here. A value given as a limit tells only on which side of the number the result lay.

The target in the assay is Serine/threonine-protein kinase mTOR (Homo sapiens) (UniProt P42345). In words: mTOR FRB domain ligand binding – biophysical, NMR (AID 1648). The note with it: NMR binding to FRB domain, chemical shift.
Serine/threonine-protein kinase mTOR (Homo sapiens), sequence (P42345 2015-2114): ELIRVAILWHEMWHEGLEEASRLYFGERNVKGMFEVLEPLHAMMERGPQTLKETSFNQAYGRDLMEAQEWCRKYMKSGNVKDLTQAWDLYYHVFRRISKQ
Consider `CC1CCCN(C/C(O)=C(\C#N)c2nc3ccccc3[nH]2)C1` (stereo not drawn), for which the Kd is > 4 mM (inactive).

As to `Cc1cc(C)nc(N2CC(=O)N(C)C2=N)n1`, the Kd is > 4 mM (inactive). With `CN1CCN(C(=O)c2ccccc2C(=O)O)CC1` the figure was > 4 mM (inactive); with `Fc1ccc(CN2CCCNCC2)cc1`, > 4 mM (inactive). Under `NC(=O)CN1CCC(c2nc3ccccc3[nH]2)CC1` stands > 4 mM (inactive); under `Cc1nc2nc(-c3ccco3)nn2c(C)c1Cl`, > 4 mM (inactive); under `O=c1c2ccccc2oc2ccccc12`, > 4 mM (inactive). Consider `CN(c1ccccc1C(=O)N1CCCC1)S(C)(=O)=O`, for which the Kd was > 4 mM (inactive).

Regarding `O=C(Oc1ccc2c(c1)OCC2=O)c1ccccc1`, the Kd is > 4 mM (inactive).

`CNC(=O)c1cc(S(=O)(=O)N(C)C)ccc1Cl`: the Kd is > 4 mM (inactive).

For the molecule `C/C(N)=C/C(=O)N1CCCCC1`, the Kd was > 4 mM (inactive). For the molecule `CC[C@@H]1[C@@H](O)N2C3C[C@H]1C1C(O)[C@]4(C[C@@H]12)c1ccccc1N(C)[C@@H]34` (stereo partly drawn), the Kd was > 4 mM (inactive).

On to `Cc1noc(-c2ccccc2)c1C(=O)O`, for which the Kd is > 4 mM (inactive). With `CS(=O)(=O)c1cccc(C(=O)Nc2nccs2)c1` the figure was > 4 mM (inactive); with `S=C(Nc1ccc2nccnc2c1)N1CCOCC1`, > 4 mM (inactive); with `COc1ccc(-c2oc3ccccc3c(=O)c2O)cc1OC`, > 4 mM (inactive). Regarding `Oc1ccccc1-c1cc(C(F)(F)F)[nH]n1`, the Kd was > 4 mM (inactive).

With `c1ccc(-c2nnc(CNCc3ccco3)o2)cc1`, the Kd is > 4 mM (inactive). With `CC(C)[C@@H]1CC[C@@H](C)C[C@H]1O` the figure was > 4 mM (inactive). With `CS(=O)(=O)N1CCN(C(=O)Cc2cccs2)CC1` the figure was > 4 mM (inactive); with `CCOC(=O)C1CCN(c2ncnc3nc[nH]c23)CC1`, > 4 mM (inactive).

Consider `CCn1cnc2cc([N+](=O)[O-])ccc2c1=O`, for which the Kd was > 4 mM (inactive).

Turning to `CN(C)C1CCS(=O)(=O)C1` (stereo not drawn), the Kd was > 4 mM (inactive). With `O=C(NCc1ccc2c(c1)OCO2)c1cccs1` the figure was > 4 mM (inactive); with `c1coc(CNc2nc(-c3ccncc3)cs2)c1`, > 4 mM (inactive). With `O=C(c1ccco1)N1CCNCC1` the figure was > 4 mM (inactive).

As to `Cc1nn(-c2ccccc2C(=O)O)c(=O)c2ccccc12`, the Kd is > 4 mM (inactive).

On to `CC(=O)N1CCn2c3c(c(=O)c4cc(C)ccc42)CCC31` (stereo not drawn), for which the Kd was > 4 mM (inactive). Under `OCc1ccc(-c2cccs2)s1` stands > 4 mM (inactive); under `O=C(O)CNS(=O)(=O)c1cccs1`, > 4 mM (inactive). With `Cc1cc(=O)oc2cc3c(cc12)OCCO3` the figure was > 4 mM (inactive); with `Cn1cccc1C(=S)N1CCOCC1`, > 4 mM (inactive); with `Nc1ncnc(NCCCO)c1[N+](=O)[O-]`, > 4 mM (inactive). Under `CN(Cc1nc2ccccc2n1C)S(C)(=O)=O` stands > 4 mM (inactive); under `Cc1cc(NS(=O)(=O)Cc2ccccc2)no1`, > 4 mM (inactive); under `CCSc1nnc(-c2ccccc2N)c(=O)[nH]1`, > 4 mM (inactive).

Turning to `C=CCCCCCCCCCCCC(O)CC(O)COC(C)=O` (stereo not drawn), the Kd is > 4 mM (inactive). With `COc1cc(O)c2c(=O)c(O)c(-c3ccc(O)c(O)c3)oc2c1` the figure was > 4 mM (inactive); with `Cc1ccnc(NS(=O)(=O)c2cccs2)c1`, > 4 mM (inactive). With `CNC(=S)Nc1ccc(C(=O)O)cc1` the figure was > 4 mM (inactive). In the case of `COc1ccccc1NC(=O)/C=N/O`, the Kd was > 4 mM (inactive). With `CNC(=O)CC1Sc2ccccc2NC1=O` (stereo not drawn) the figure was > 4 mM (inactive); with `c1ccc2c(c1)ncn2CCn1cnc2ccccc21`, > 4 mM (inactive). Under `CCc1cc(=O)[nH]c(SCC(=O)NCCOC)n1` stands > 4 mM (inactive). Under `Nc1nc(-c2ccc(F)c(F)c2)cs1` stands > 4 mM (inactive). For `COc1c(O)cc2c(c1O)[C@H]1O[C@H](CO)[C@@H](O)[C@H](O)[C@@H]1OC2=O`, the Kd was > 4 mM (inactive). For `Nc1ncnc2c1ncn2[C@@H]1O[C@H](CO)[C@@H](O)[C@H]1O`, the Kd was > 4 mM (inactive).

Turning to `CCN=Cc1c(O)n(-c2ccccc2C)c(=O)[nH]c1=O`, the Kd is > 4 mM (inactive). With `Cc1c(C(=O)Nc2cnccn2)oc2ccccc12` the figure was > 4 mM (inactive). For the molecule `CC(=O)CC1(O)C(=O)Nc2ccccc21` (stereo not drawn), the Kd was > 4 mM (inactive). Consider `CC(CO)NC(=O)C1C=C2c3cccc4[nH]cc(c34)C[C@H]2N(C)C1` (stereo partly drawn), for which the Kd is > 4 mM (inactive). In the case of `CN(C)c1nc(N2CCOCC2)nc(N2CCOCC2)n1`, the Kd is > 4 mM (inactive). With `COc1cc2c(cc1OC)[C@@H]1C(=O)c3ccc4oc(C(C)C)cc4c3O[C@@H]1CO2`, the Kd is > 4 mM (inactive). With `C=CCCCCCCCCCCCc1ccco1` the figure was > 4 mM (inactive). With `Nc1cccc(C(=O)c2ccccc2)c1`, the Kd is > 4 mM (inactive). With `Brc1cccc(-c2nnco2)c1` the figure was > 4 mM (inactive); with `Cn1c(SCC(N)=O)nc2c1c(=O)[nH]c(=O)n2C`, > 4 mM (inactive); with `CN1CCN(S(=O)(=O)c2ccc(=O)[nH]c2)CC1`, > 4 mM (inactive).

For the molecule `CC(=O)Nc1nc(C)nc(-c2ccccc2)c1C(C)=O`, the Kd is > 4 mM (inactive). For the molecule `O=[N+]([O-])c1ccc2c(c1)N([O-])C1(CCCCC1)[N+]2=O`, the Kd is > 4 mM (inactive).

Take `NC1=NC(=O)C(Cc2cccc([N+](=O)[O-])c2)S1` (stereo not drawn): the Kd is > 4 mM (inactive). Under `NC(=O)c1cccc(Cl)n1` stands > 4 mM (inactive); under `O=C(c1ccccc1)c1ccccc1C(=O)N1CCOCC1`, > 4 mM (inactive). `CSc1nc2cc(F)c(F)cc2n1C`: the Kd was > 4 mM (inactive). Under `O=C1C2CC=CCC2C(=O)N1c1ccccc1O` (stereo not drawn) stands > 4 mM (inactive). For the molecule `NC1CCN(Cc2ccccc2)CC1`, the Kd is > 4 mM (inactive).

On to `NC(=O)NC1NC(=O)NC1=O` (stereo not drawn), for which the Kd is > 4 mM (inactive). Under `O=C(NN=C1CCCC1)c1ccncc1` stands > 4 mM (inactive); under `CC(C)CCCC1(C)C=Cc2c(O)c3c(c(CCC(C)C)c2O1)OC12C(CC4CC1C(C)(C)OC2(CCC(C)C(=O)O)C4O)C3=O` (stereo not drawn), > 4 mM (inactive); under `COc1c(O)cc2c(-c3ccccc3)cc(=O)oc2c1OC`, > 4 mM (inactive). With `Cc1oc(-c2ccccc2)cc1C(N)=O` the figure was > 4 mM (inactive). In the case of `Cc1nnc(NCCCO)[nH]c1=O`, the Kd was > 4 mM (inactive). On to `COc1cc(O)c2c(=O)cc(-c3ccc(OC)c(-c4c(O)cc(O)c5c(=O)cc(-c6ccc(O)cc6)oc45)c3)oc2c1`, for which the Kd is > 4 mM (inactive). As to `Cn1nnc2cc(C(=O)NCc3ccco3)ccc21`, the Kd is > 4 mM (inactive). For `CC(=O)NC(NC(C)=O)c1ccccc1`, the Kd is > 4 mM (inactive). For the molecule `Cc1occc1C(=O)Nc1nnc(C(F)(F)F)s1`, the Kd is > 4 mM (inactive). On to `CC1=NCCc2c1[nH]c1cc(O)ccc21`, for which the Kd is > 4 mM (inactive). Consider `CCCCn1c(=O)cc(O)c2ccccc21`, for which the Kd was > 4 mM (inactive). On to `C[N+](C)(C)CC(=O)[O-]`, for which the Kd was > 4 mM (inactive). As for `c1ccc2nc3c(nc2c1)CCc1nonc1-3`, the Kd was > 4 mM (inactive).

For `Cc1cccc(NS(=O)(=O)c2cccs2)n1`, the Kd is > 4 mM (inactive).

Take `Nc1cncc(C(=O)O)c1`: the Kd was > 4 mM (inactive).

In the case of `Cc1nc2ccccc2c(=O)n1/N=C/c1ccco1`, the Kd was > 4 mM (inactive).

Regarding `CC(=O)n1nc(-c2cccnc2)nc1N`, the Kd is > 4 mM (inactive). In the case of `COc1ccc2c(c1)OCC(Cc1ccc(OC)c(OC(C)=O)c1)C2=O` (stereo not drawn), the Kd was > 4 mM (inactive). For the molecule `O=C(O)c1cccnc1N1CCOCC1`, the Kd is > 4 mM (inactive). With `Cc1cccn2cc(CNc3ccccc3)nc12`, the Kd was > 4 mM (inactive). With `Nc1ccc(Cc2ccc(N)cc2)cc1` the figure was > 4 mM (inactive).

`O=C1NCCCC1C(=O)N1CCCCC1` (stereo not drawn): the Kd is > 4 mM (inactive). For the molecule `Cc1nc2ccccc2c2c1C(=O)N(N)C2=O`, the Kd is > 4 mM (inactive). Take `Cn1cnnc1SCCCNC(=O)Nc1ncccn1`: the Kd was > 4 mM (inactive). Under `CC(=O)Nc1ccc(NC(=O)c2ccncc2)cc1` stands > 4 mM (inactive). Turning to `CCC1(CC)C(=O)N=C(N)NC1=O`, the Kd is > 4 mM (inactive).

Turning to `NCC(=O)c1ccccc1`, the Kd was > 4 mM (inactive). On to `CS(C)=C1C(=O)NC(=O)N(Cc2ccc(F)cc2)C1=O`, for which the Kd was > 4 mM (inactive). On to `O=C(c1cnsn1)N1CCN(c2ccccc2)CC1`, for which the Kd was > 4 mM (inactive). With `COc1c2occc2cc2ccc(=O)oc12` the figure was > 4 mM (inactive); with `O=C(O)c1csc(-c2ccccc2)n1`, > 4 mM (inactive); with `O=C(O)c1ccc(CN2CCCCC2)o1`, > 4 mM (inactive). `CC1(C)CC2C1CC[C@]1(C)CCC3C(C(=O)O)CC(=O)O[C@@]32C1` (stereo partly drawn): the Kd is > 4 mM (inactive). Under `CN1C(=O)CC[C@H]1c1cccnc1` stands > 4 mM (inactive); under `COC(=O)[C@@H]1OC(=O)[C@H]2O[C@@]23[C@@]1(C)CCC1[C@@]2(C)CCC(=O)C(C)(C)C2C[C@@H](OC(C)=O)[C@]13C` (stereo partly drawn), > 4 mM (inactive). With `CC1(C)C(=O)C=C[C@@]2(C)C1C=C[C@]1(C)C2CC[C@@]2(C)[C@H](c3ccoc3)OC(=O)C3OC321` (stereo partly drawn), the Kd is > 4 mM (inactive).
